According to publication PMC11868579 (Nature Communications, 2024):
pEC50, pKd: −log10 of the molar value. Where “and” joins values, the source holds several entries; their conditions need not be identical. Equal entries are not always repeated.

Key:
[1] = molecular target: T1, eIF4E major variant (D127) (Homo sapiens, UniProt P06730); format: binding
T1 construct: made in house; host or cells: E. coli (as described for clone 2983)
Experimental: ITC experiments were performed on either a MicroCal VP-ITC or a MicroCal Auto-ITC200 at 25 °C in a buffer comprising 50 mM HEPES, 100 mM NaCl, 1 mM TCEP and 5% DMSO at pH 7.5. Typical titrations on the MicroCal VP-ITC were performed using 17 × 16.4 µL injections with a 250 s spacing between each injection and with a stirring speed of 307 rpm. Typical titrations on the MicroCal Auto-ITC200 were performed using 12 × 3 µL injections with a 150 s spacing between each injection and with a stirring speed of 750 rpm. ITC data analyses were performed with Origin 7.0 software using the “One Set of Sites” model.

MCL1 protein expression = experiment: Immunoblot of MCL1 in eIF4E-dTAG clones and rescue models; format: cell-based, human
Experimental: One sample t and Wilcoxon tests (two-sided), using 100% as hypothetical control value, were performed and compared with the control in each cell line. b, c Real-time cell growth measurements monitored every 4 h over a 6-day period. Cell confluency (%) was calculated using Incucyte Zoom software and (mean ± SEM n = 3 biological replicates). Ordinary one-way ANOVA with Tukey multiple comparisons test compared treatment with the control in each cell line. […] Vinculin was used as loading control. H1299 (PAR) cell lines were treated with 1 μM dTAG^V-1 only as qualitative control. Vinculin was used as loading control. […] Significant p-values (< 0.05) are shown on the plots and the source data is located in the Source Data file.
After seeding overnight in 6 well plates (Corning, cat#353046), cells were treated with compounds for the indicated times and concentration, harvested and the cell pellet lysed on ice in cell lysis buffer (Cell Signaling, cat#9803), supplemented with 1x Halt^TM protease inhibitor cocktail (Fisher Scientific, cat#78429) and cOmplete^TM protease inhibitor cocktail (Sigma-Aldrich, cat#11836153001) for 1 hr. Protein was quantified using BCA protein kit (Fisher Scientific, cat#23225). Western blot was performed using NuPAGE^TM 4–12% Bis-Tris gels (Fisher Scientific, cat#NP0336BOX) and transferred using the Invitrogen iBLOT^TM gel transfer device system (Fisher Scientific, Cat#IB21001). […] All primary antibodies were diluted (1:1000) in 5% BSA (Sigma-Aldrich, cat#A7906) in 1x TBS and 0.1% Tween 20 (Sigma-Aldrich, cat#P1379), except for vinculin (1:2000) that was diluted in casein blocker (Sigma-Aldrich, cat#1610782). This was followed by incubation with the secondary HRP-conjugated antibodies (anti-mouse HRP, Bio-rad, Watford, UK, cat#1705047; anti-rabbit HRP, Sigma-Aldrich, cat#NA934) in casein for 1 h at RT. ECL HRP substrate (SuperSignalTM West Pico, Fisher Scientific, cat#34578) was then added to detect protein targets by chemiluminescence and images acquired using the ChemiDocTM system (Bio-Rad). Quantitative densitometry analysis of protein bands was performed using Image J v1.53 software.

[2] = tested on: H1299 eIF4E-dTAG clones (C2-2, C3-1, N2-1, N3-2) and C3-1 rescue models; experiment: IncuCyte real-time cell growth of eIF4E-dTAG clones and rescue models; format: cell-based, human; conditions: for proliferation on co-treatment: 25 μM with dTAG^V-1
Experimental: Real time monitoring of cell growth was performed with the IncuCyte ZOOM live cell imaging system (Essen BioSciences, USA). Cells were seeded in 96 well plates (Corning, cat#353072) and treated on the next day. The resulting phase-contrast images were analysed using IncuCyte ZOOM 2018A software and results were expressed as percentage confluency of cells.

eIF4E:eIF4G interaction [3] = molecular target: T2, eIF4E:eIF4G interaction (Homo sapiens, UniProt P06730); experiment: Electro-chemiluminescent binding assay, eIF4E:eIF4G, HeLa cell lysates; format: biochemical; design: endogenous in cells; host or cells: HeLa cells (lysates); conditions: for binding of eIF4G or 4E-BP1 with eIF4E, luminescence normalised to DMSO control, Average: HeLa, n=3, Fig. 4e
T2 sequence (P06730 2-217 limits assumed): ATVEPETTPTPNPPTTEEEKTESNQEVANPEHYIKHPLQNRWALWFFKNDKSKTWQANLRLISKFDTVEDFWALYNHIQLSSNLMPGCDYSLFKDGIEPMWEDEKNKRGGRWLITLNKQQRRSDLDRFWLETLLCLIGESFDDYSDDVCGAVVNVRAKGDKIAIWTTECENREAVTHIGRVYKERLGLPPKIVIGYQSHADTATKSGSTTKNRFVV
Experimental: (§1) This assay uses plates with carbon electrodes and electro-chemiluminescent labels (SULFO-TAGs) that are conjugated to detection antibodies. When an electric current is applied to the plate electrodes the SULFO-TAG labels will emit light that is measured to quantify analytes in the sample. […] The plates were washed with 3 ×150 µl/well MSD wash buffer (cat#R61AA-1; 0.2% Tween-20 in PBS), then blocked with 150 µl/well block buffer (MSD, cat# R93AA) for 1 h. […] The incubated plates were washed 4x in 150 µl in MSD wash buffer and were re-blocked by the addition of 25 μl of blocking buffer containing a 1:500 dilution of the secondary antibody and incubated for 1 hr at RT with rotational shaking. […] Plates were then washed again 4x in 150 µl in MSD wash buffer and 25 μl of a 1:50 dilution of Goat anti-rabbit Sulfo-Tag (MSD, Cat# R32AB-1) in MSD blocking buffer was added and the plates incubated for 1 h at RT with rotational shaking. After a final wash step, 150 μl Read Buffer T4X (MSD, Cat# R92-TC2) was added and the plate read using the MSD QuickPlex SQ 120 plate reader.

eIF4E:eIF4G interaction [4] = molecular target: T2, eIF4E:eIF4G interaction; experiment: Electro-chemiluminescent binding assay, eIF4E:eIF4G, H1299 cell lysates; format: biochemical; design: endogenous in cells; host or cells: HeLa, SW620 or H1299 cells (lysates; intact H1299 cells in A13); conditions: for endogenous eIF4E:eIF4G interaction, electro-chemiluminescent signal, Average: n=3, 0 μM control in r69
Experimental: as §1

[5] = 25 μM, absence of dTAG^V-1, C3-1, W73F and L85R models

T1 sequence (P06730 with tags, fused parts or gaps): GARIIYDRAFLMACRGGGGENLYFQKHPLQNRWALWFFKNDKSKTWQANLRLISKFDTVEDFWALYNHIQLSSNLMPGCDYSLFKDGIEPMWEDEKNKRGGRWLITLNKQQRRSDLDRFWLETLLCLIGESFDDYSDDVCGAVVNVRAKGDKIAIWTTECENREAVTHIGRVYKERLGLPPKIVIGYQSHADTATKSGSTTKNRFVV

CC[C@H](O[C@H](C)CO)c1ccc(-c2ccccc2F)cc1NCCO [Compound 4]
enthalpy DH ([1]; ITC, eIF4E D127): -42.7 kJ/mol
entropic penalty -TDS ([1]; ITC, eIF4E D127): 2.5 ± 1.7 kJ/mol
LE (ligand efficiency) ([1]; major variant D127 (values in parentheses)): 0.38 (kcal/mol)/heavy atom
pKd ([1]; read-out: eIF4E Kd, ITC, major variant D127 (values in parentheses)): 7.05
MCL1 expression on co-treatment (MCL1 protein expression; 25 μM with dTAG^V-1, C3-1 or L85R rescue line): no additional loss of proliferation or MCL1 expression
effect on MCL1 biomarker (MCL1 protein expression; [5]): no effect on the MCL1 biomarker or proliferation
proliferation on co-treatment ([2]; C3-1 or L85R rescue line): no additional loss of proliferation or MCL1 expression
proliferation on co-treatment ([2]; W73F mutant model): significant combinatorial effect on proliferation
effect on proliferation [2, 5]: no effect on the MCL1 biomarker or proliferation
effects on cell growth, control combination ([2]; compound 4 with neg-dTAG^V-1): no significant effects
sensitisation on co-treatment ([2]; with dTAG^V-1, W73F mutant model): ≈ 50%
pEC50 (eIF4E:eIF4G interaction [3]; HeLa cell lysates, n = 4, read-out: Inhibition of PPI in HeLa cells: eIF4E-eIF4G interaction): 5.85
eIF4G:eIF4E HeLa, luminescence ratio normalised to DMSO control (eIF4E:eIF4G interaction [3]; HeLa lysates, 100 µM, 30 min, single experiments Expt 1, Expt 2): 6.4% and 10%
binding of eIF4G or 4E-BP1 with eIF4E, luminescence normalised to DMSO control, Average (eIF4E:eIF4G interaction [3]; Conc 0.03 μM): 97.2%
binding of eIF4G or 4E-BP1 with eIF4E, luminescence normalised to DMSO control, Average (eIF4E:eIF4G interaction [3]; Conc 0.1 μM): 114.5%
binding of eIF4G or 4E-BP1 with eIF4E, luminescence normalised to DMSO control, Average (eIF4E:eIF4G interaction [3]; Conc 0.3 μM): 82.4%
binding of eIF4G or 4E-BP1 with eIF4E, luminescence normalised to DMSO control, Average (eIF4E:eIF4G interaction [3]; Conc 1 μM): 79.9%
binding of eIF4G or 4E-BP1 with eIF4E, luminescence normalised to DMSO control, Average (eIF4E:eIF4G interaction [3]; Conc 3 μM): 54.2%
binding of eIF4G or 4E-BP1 with eIF4E, luminescence normalised to DMSO control, Average (eIF4E:eIF4G interaction [3]; Conc 10 μM): 38.7%
binding of eIF4G or 4E-BP1 with eIF4E, luminescence normalised to DMSO control, Average (eIF4E:eIF4G interaction [3]; Conc 30 μM): 33.9%
binding of eIF4G or 4E-BP1 with eIF4E, luminescence normalised to DMSO control, Average (eIF4E:eIF4G interaction [3]; Conc 100 μM): 26.4%
binding of eIF4G or 4E-BP1 with eIF4E, luminescence normalised to DMSO control, Average (eIF4E:eIF4G interaction [3]; Conc 300 μM): 22.8%
binding of eIF4G or 4E-BP1 with eIF4E, luminescence normalised to DMSO control, Average (eIF4E:eIF4G interaction [3]; Conc 1000 μM): 28.1%
endogenous eIF4E:eIF4G interaction, electro-chemiluminescent signal, Average (eIF4E:eIF4G interaction [4]; 0.1 μM): 820654.4
endogenous eIF4E:eIF4G interaction, electro-chemiluminescent signal, Average (eIF4E:eIF4G interaction [4]; 1 μM): 641951.8
endogenous eIF4E:eIF4G interaction, electro-chemiluminescent signal, Average (eIF4E:eIF4G interaction [4]; 10 μM): 429514.6
endogenous eIF4E:eIF4G interaction, electro-chemiluminescent signal, Average (eIF4E:eIF4G interaction [4]; 100 μM): 347571.1
pEC50 (eIF4E:eIF4G interaction [4]; read-out: EC50, eIF4G:eIF4E binding): ~5.82
